Data: PubChem BioAssay (NCI)
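Test compounds were applied to cells in 96-well plates for 48 hours at 5 doses. GI50 is the concentration that inhibits growth by half. TGI: concentration producing complete growth inhibition.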

What was measured:
Test in all cases: NCI tumour cell line growth inhibition, 48 h
NCI/ADR-RES ovarian = system: NCI/ADR-RES ovarian
T-47D breast = system: T-47D breast
HS 578T breast = system: HS 578T breast
MDA-N = system: MDA-N
MDA-MB-231 breast = system: MDA-MB-231 breast
KM20L2 colon = system: KM20L2 colon
DLD-1 colon = system: DLD-1 colon
LOX IMVI melanoma = system: LOX IMVI melanoma
SNB-78 CNS = system: SNB-78 CNS
DMS 273 small cell lung = system: DMS 273 small cell lung
PC-3 prostate = system: PC-3 prostate
SN12K1 renal = system: SN12K1 renal
P388/ADR leukemia = system: P388/ADR leukemia
HOP-18 NSCLC = system: HOP-18 NSCLC
DMS 114 small cell lung = system: DMS 114 small cell lung
P388 leukemia = system: P388 leukemia
LXFL 529 NSCLC = system: LXFL 529 NSCLC

CO/C(=N/N1CC1C(F)(F)F)c1ccncc1 (stereo not given) was tested, and the TGI (NCI/ADR-RES ovarian) was > 100 µM, the TGI (T-47D breast) was > 100 µM and the TGI (HS 578T breast) was > 100 µM. For the same compound, the TGI (MDA-N) was > 100 µM and the TGI (MDA-MB-231 breast) was > 100 µM.

In the case of CCCCOC(=O)CN1C(=O)c2ccccc2C1=O, the TGI (KM20L2 colon) is reported as > 100 µM, the TGI (DLD-1 colon) is reported as > 100 µM and the TGI (LOX IMVI melanoma) is reported as > 100 µM. For the same compound, the TGI (SNB-78 CNS) was > 100 µM and the TGI (DMS 273 small cell lung) was > 100 µM.

In the case of O=C(CCl)N1CCCCC1C1(c2cc3ccccc3[nH]2)OCCO1 (stereo not given), the TGI (NCI/ADR-RES ovarian) is reported as 14.6 µM, the TGI (T-47D breast) is reported as 26 µM and the TGI (HS 578T breast) is reported as 13.9 µM. It also gave a TGI (LOX IMVI melanoma) of 0.141 µM, a TGI (MDA-N) of 8.81 µM and a TGI (PC-3 prostate) of 8.83 µM. For the same compound, the TGI (MDA-MB-231 breast) was 12.8 µM.

With CN(C)CCOc1cc2c(c3ccccc13)-c1ccccc1C2=O the TGI (NCI/ADR-RES ovarian) was 2.64 µM, the TGI (KM20L2 colon) was 5.3 µM and the TGI (SN12K1 renal) was 2.04 µM. It also gave a TGI (P388/ADR leukemia) of 1.95 µM, a TGI (HOP-18 NSCLC) of 8.58 µM and a TGI (DLD-1 colon) of 4.01 µM. The TGI (LOX IMVI melanoma) was 2.53 µM, the TGI (DMS 114 small cell lung) was 2.65 µM and the TGI (SNB-78 CNS) was 23 µM. It also gave a TGI (DMS 273 small cell lung) of 1.85 µM and a TGI (P388 leukemia) of 2.7 µM.

In the case of C#CCCCC(=C)C[C@H](OCc1ccccc1)[C@H]1OC(=O)[C@@H]1C, the TGI (NCI/ADR-RES ovarian) is reported as > 100 µM, the TGI (MDA-N) is reported as > 100 µM and the TGI (PC-3 prostate) is reported as > 100 µM. It also gave a TGI (MDA-MB-231 breast) of 63.3 µM.

In the case of Cc1nc(Nc2nnc(-c3cc([N+](=O)[O-])cc([N+](=O)[O-])c3C)o2)sc1C(=O)CC(=O)Cc1nc2ccc(Cl)cc2[nH]c1=O, the TGI (LXFL 529 NSCLC) is reported as > 100 µM, the TGI (KM20L2 colon) is reported as > 100 µM and the TGI (LOX IMVI melanoma) is reported as > 100 µM. For the same compound, the TGI (DMS 114 small cell lung) was > 100 µM, the TGI (SNB-78 CNS) was > 100 µM and the TGI (DMS 273 small cell lung) was > 100 µM.

With COC(=O)c1cccc(NC(=O)Nc2ccc3oc(=O)c4ccccc4c3c2)c1 the GI50 (MDA-MB-231 breast) was 3.89 µM and the TGI (MDA-MB-231 breast) was > 100 µM.
